Results reported in patent US5679521A, “Steroid 5A-reductases” (priority 1995, dated 1997).
Where “and” joins values, the source holds several entries; their conditions need not be identical. Equal values may be shown once.

Experiments:
[1] = target: T1, human steroid 5α-reductase 1 (Homo sapiens, UniProt P18405); test: steroid 5α-reductase activity/inhibition in vitro, homogenates of COS cells expressing human steroid 5α-reductase 1 cDNA (Table III); settings: human enzyme
T1 sequence (P18405 1-259): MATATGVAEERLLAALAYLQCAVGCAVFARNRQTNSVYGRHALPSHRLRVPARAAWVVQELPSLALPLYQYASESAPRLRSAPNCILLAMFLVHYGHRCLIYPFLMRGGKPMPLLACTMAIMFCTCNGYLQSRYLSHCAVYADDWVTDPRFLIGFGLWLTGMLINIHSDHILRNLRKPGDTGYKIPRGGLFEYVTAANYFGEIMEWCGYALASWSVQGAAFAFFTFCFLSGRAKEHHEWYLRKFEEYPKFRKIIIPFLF
Excerpt: (§1) Expression Vector Construction. A rat steroid 5α-reductase cDNA corresponding to nucleotides 1-1962 (see Example 1) was ligated into the pCMV4 expression vector (Andersson et al., 1989b). A human cDNA corresponding to nucleotides 1 to 842 of FIG. 7 was initially ligated into pCMV4. […] After amplification, the product was ligated into pCMV4.
(§2) Expression of Steroid 5α-Reductase 1 cDNAs in COS Cells. Simian COS-M6 cells were transfected as described by Andersson et al. (1989b). The assay of steroid 5α-reductase activity in intact cells was carried out as described in Example 1 except that [^14 C]-labeled steroid dissolved in ethanol were added to the transfected cell medium and subsequent organic extractions were carried out with dichloromethane. TLC and liquid scintillation counting were performed as described in Example 1.
(§3) To assay steroid 5α-reductase activity in vitro, cells were harvested 48 hours after transfection, washed once with phosphate buffered saline and either frozen in liquid N2 or homogenized directly with a Polytron in 10 mM potassium phosphate (pH 7.4), 150 mM KCl and 1 mM EDTA, at a protein concentration of 2 mg/ml. A typical assay contained 10 to 50 μg of cell homogenate protein in 0.5 ml of 0.1M potassium phosphate buffer (pH 6.6, rat enzyme; pH 7.0, human enzyme). Steroids were added in 5 μl ethanol, and the reaction was initiated by the addition of NADPH to a final concentration of 2-5 mM. Incubations were carried out for 10 min at 37° C. and terminated by the addition of 5 ml dichloromethane. Organic execrations and thin-layer chromatography analysis were as described above.
(§4) The apparent Km and Vmax values in this system were determined in vitro with five different steroid substrates (Table III).
(§5) The apparent Ki values were then determined for 4-aza-steroid (4-MA and MK-906) inhibition of 5α-reductases expressed in COS cells. […] The data obtained were analyzed using Dixon plots to determine the type of inhibition and the apparent Ki value (Dixon et al., 1979).
(§6) COS call transfaction, cell homogonate preparation, and enzyme assay were
(§7) carried out as described in Materials and Methods. Each Km value
(§8) represents the average of at least two experiments carried out on
(§9) different days using cell lysates prepared from different transfections.

[2] = target: T2, rat steroid 5α-reductase (Rattus norvegicus, UniProt P24008); test: steroid 5α-reductase activity/inhibition in vitro, homogenates of COS cells expressing rat cDNA (Table III); settings: rat enzyme
T2 sequence (P24008 5-259): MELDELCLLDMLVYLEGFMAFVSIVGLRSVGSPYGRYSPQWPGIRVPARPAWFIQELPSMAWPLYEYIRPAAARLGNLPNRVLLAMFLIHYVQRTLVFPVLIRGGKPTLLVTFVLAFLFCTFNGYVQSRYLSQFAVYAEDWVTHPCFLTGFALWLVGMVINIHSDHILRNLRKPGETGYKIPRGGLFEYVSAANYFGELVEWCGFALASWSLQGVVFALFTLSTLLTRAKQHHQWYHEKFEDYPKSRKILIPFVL
Excerpt: as §1, §2, §3, §4, §5, §6, §7, §8, §9

[3] = target: T3, cloned rat steroid 5α-reductase (Rattus norvegicus, UniProt P24008); test: substrate specificity / inhibition of cloned rat liver steroid 5α-reductase expressed in Xenopus oocytes; settings: for substrate for the cloned enzyme: 5 μM 14C-labeled steroid
T3 sequence (P24008 5-259): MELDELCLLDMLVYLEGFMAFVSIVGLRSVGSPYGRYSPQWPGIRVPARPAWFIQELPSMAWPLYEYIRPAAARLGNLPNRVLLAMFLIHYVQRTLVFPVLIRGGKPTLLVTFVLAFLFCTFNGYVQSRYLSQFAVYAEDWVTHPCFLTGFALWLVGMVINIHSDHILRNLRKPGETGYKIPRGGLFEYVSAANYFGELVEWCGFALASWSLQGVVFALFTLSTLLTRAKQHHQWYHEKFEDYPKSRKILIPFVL
Procedure: The various steroids and metabolites are identified on the left and right of the autoradiograms: P, progesterone ; 5αP, 5α-dihydroprogesterone; others are as indicated in the legend to FIG. 2. The amount of 5α-reduced metabolites for each substrate is indicated at the bottom of the figure and was determined by liquid scintillation counting after cutting out appropriate zones from the chromatograms.
Steroid 5α-Reductase Enzyme Assay. Stage 5 and 6 oocytes were surgically removed from female Xenopus laevis (NASCO, Fort Atkinson , Wis.) and collagenase-treated as described by Julius et al., (1988). Oocytes were injected with 50-100 nl of RNA (1 μg/μl) as described by Peacock et al. (Peacock et al., 1988). After injection the oocytes were incubated at 19° C. for 24 hours in modified Barth's saline solution (Peacock et al., 1988) containing 1 mg/ml bovine serum albumin (BSA) to allow expression of the injected RNA. Five to ten viable oocytes were then transferred to 1 ml of modified Barth's saline solution containing 5 μM ^14 C-labeled steroid (50 mCi/mmol, Du Pont-New England Nuclear), and incubated at 37° C. for 2-24 h. This temperature-jump protocol is based on the observation that expression of mRNA in Xenopus is maximal a 19° C., whereas rat steroid 5α-reductase expressed in Xenopus has a temperature optima of 37° C. After the 37° C. incubation, the oocytes were homogenized in the incubation medium and steroid was extracted with 10 ml of dichloromethane. The solvent was evaporated under air and the residue was dissolved in 0.1 ml of chloroform/methanol (2:1, v/v) and subjected to thin-layer chromatography using Siica Gel 60 thin-layer chromatography plates (E. merck, 5748-7, Darmstadt, West Germany). The chromatoplates were autoradiographed for 18 hours at -70° C. and the radioactive zones were cut out and subjected to liquid scintillation counting in Complete Counting Cocktail (Research Products International). The identities of the products were determined by comparison to the Rf values of known standards.
(§12) The oocytes were then incubated with different radiolabeled steroids for an additional 24 hours and the products formed were analyzed by thin-layer chromatography (TLC).

[4] = system: endogenous Xenopus enzyme (presumably a 17β-hydroxysteroid dehydrogenase); test: conversion of steroids by endogenous Xenopus oocyte enzymes (control for nonspecific inhibition); type: cell-based, Xenopus laevis; settings: 5 μM substrate, 5 μM inhibitor
Procedure: Steroid 5α-Reductase Enzyme Assay. Stage 5 and 6 oocytes were surgically removed from female Xenopus laevis (NASCO, Fort Atkinson , Wis.) and collagenase-treated as described by Julius et al., (1988). Oocytes were injected with 50-100 nl of RNA (1 μg/μl) as described by Peacock et al. (Peacock et al., 1988). After injection the oocytes were incubated at 19° C. for 24 hours in modified Barth's saline solution (Peacock et al., 1988) containing 1 mg/ml bovine serum albumin (BSA) to allow expression of the injected RNA. Five to ten viable oocytes were then transferred to 1 ml of modified Barth's saline solution containing 5 μM ^14 C-labeled steroid (50 mCi/mmol, Du Pont-New England Nuclear), and incubated at 37° C. for 2-24 h. […] After the 37° C. incubation, the oocytes were homogenized in the incubation medium and steroid was extracted with 10 ml of dichloromethane. The solvent was evaporated under air and the residue was dissolved in 0.1 ml of chloroform/methanol (2:1, v/v) and subjected to thin-layer chromatography using Siica Gel 60 thin-layer chromatography plates (E. merck, 5748-7, Darmstadt, West Germany). […] The identities of the products were determined by comparison to the Rf values of known standards.
as §12

[5] = system: steroid 5α-reductase; settings: Liang et al., 1985; cited from earlier work
[6] = target: T2, rat steroid 5α-reductase; test: steroid 5α-reductase assay in intact transfected COS cells, rat cDNA; type: cell-based; design: the open reading frame would encode a hydrophobic protein of 255 amino acids; expressed in transfected cells; host or cells: simian COS-M6 cells, pCMV4 vector; settings: rat enzyme expressed in COS cells; 37° C., 2 hr
Excerpt: as §1, §2
(§10) COS cells were transiently transfected with expression vectors harboring the rat or human steroid 5α-reductase 1 cDNAs, or with the pCMV4 vector alone.
(§11) IC50 values for MK-906 and 4-MA inhibition of 5α-reductases expressed in COS cells were also determined. […] See Example 6 and FIG. 15, for further analysis of 4-aza-steroid inhibition.

[7] = target: T1, human steroid 5α-reductase 1; test: steroid 5α-reductase assay in intact transfected COS cells, human type 1 cDNA; type: cell-based; design: Human 5α-reductase 1 is 259 residues long; expressed in transfected cells; host or cells: simian COS-M6 cells, pCMV4 vector; settings: human steroid 5α-reductase 1 expressed in COS cells; 37° C., 2 hr
Excerpt: as §1, §2, §10, §11

[8] = substrate: CC(=O)[C@H]1CC[C@H]2[C@@H]3CCC4=CC(=O)CC[C@]4(C)[C@H]3CC[C@]12C; test: cells, lysate or membranes named; settings: 0.6 to 20 μM substrate, Lineweaver-Burk, 37.0 °C
Procedure: (§13) To assay steroid 5α-reductase activity in vitro, cells were harvested 48 hours after transfection, washed once with phosphate buffered saline and either frozen in liquid N2 or homogenized directly with a Polytron in 10 mM potassium phosphate (pH 7.4), 150 mM KCl and 1 mM EDTA, at a protein concentration of 2 mg/ml. A typical assay contained 10 to 50 μg of cell homogenate protein in 0.5 ml of 0.1M potassium phosphate buffer (pH 6.6, rat enzyme; pH 7.0, human enzyme). Steroids were added in 5 μl ethanol, and the reaction was initiated by the addition of NADPH to a final concentration of 2-5 mM. Incubations were carried out for 10 min at 37° C. and terminated by the addition of 5 ml dichloromethane. Organic execrations and thin-layer chromatography analysis were as described above. The formation of 5α-reduced steroid products was linear with respect to protein over a 10 to 50 μg range and with respect to incubation time over a 1 to 30 minute period.

[9] = substrate: C[C@]12CCC(=O)C=C1CC[C@@H]1[C@@H]2CC[C@]2(C)C(=O)CC[C@@H]12; test: cells, lysate or membranes named; settings: 0.6 to 20 μM substrate, Lineweaver-Burk, 37.0 °C
Procedure: as §13

[10] = substrate: C[C@]12CC[C@H]3[C@@H](CCC4=CC(=O)CC[C@@]43C)[C@@H]1CC[C@@H]2O; test: cells, lysate or membranes named; settings: 0.6 to 20 μM substrate, Lineweaver-Burk, 37.0 °C
[11] = read-out: apparent Ki, two [14C]testosterone concentrations, Dixon plots
[12] = other: rat enzyme in COS cell homogenate
[13] = other: human enzyme in COS cell homogenate

For C[C@]12CCC(=O)C=C1CC[C@@H]1[C@@H]2[C@@H](O)C[C@@]2(C)[C@H]1CC[C@]2(O)C(=O)CO [Cortisol, cortisol], the “activity towards 11β-substituted steroids” value [1] was “very low activities” and the “activity towards 11β-substituted steroids” value [2] was “very low activities”.

In the case of C[C@]12C[C@H](O)[C@H]3[C@@H](CCC4=CC(=O)CC[C@@]43C)[C@@H]1CC[C@@H]2C(=O)CO [Corticosterone, corticosterone], the “activity towards 11β-substituted steroids” value [1] is reported as “very low activities” and the “activity towards 11β-substituted steroids” value [2] is reported as “very low activities”.

With C[C@]12CCC(=O)C=C1CC[C@@H]1[C@@H]2CC[C@]2(C)C(=O)CC[C@@H]12 [Androstenedione, androstenedione] the “substrate for the cloned enzyme” value [3] was “substrates for the cloned enzyme”.

In the case of CC(=O)[C@H]1CC[C@H]2[C@@H]3CCC4=CC(=O)CC[C@]4(C)[C@H]3CC[C@]12C [Progesterone, progesterone], the “substrate for the cloned enzyme” value [3] is reported as “substrates for the cloned enzyme”.

For CCN(CC)C(=O)[C@H]1CC[C@H]2[C@@H]3CC[C@H]4N(C)C(=O)CC[C@]4(C)[C@H]3CC[C@]12C [4-MA, 17α-N,N-diethylcarbamoyl-4-methyl-4-aza-5α-androtane-3-one], the “effect on conversion of dihydrotestosterone into other 5α-reduced metabolites by endogenous Xenopus enzymes” value [4] was “no effect”, the “effect on conversion of testosterone into androstenedione by endogenous Xenopus enzyme” value [4] was “not inhibited” and the “apparent Ki (in words)” value [1] was “low nanomolar range”. The type of inhibition ([1]; Dixon plots) was “competitive”, the Ki [1, 11] was 7 nM and 8 nM and the type of inhibition [5] was “competitive inhibitors”. For the same molecule, the “effect on reduction of androstenedione” value ([3]; 5 μM substrate, 5 μM inhibitor) was “efficiently blocked”, the “effect on reduction of progesterone” value ([3]; 5 μM substrate, 5 μM inhibitor) was “efficiently blocked” and the “effect on formation of 5α-reduced products from testosterone” value ([3]; equimolar testosterone and inhibitor (5 μM each)) was “substantial decrease”. The “IC50 inhibition, relative potency of MK-906 and 4-MA” value [6] was “equipotent”, the “apparent Ki (in words)” value [2] was “low nanomolar range” and the type of inhibition ([2]; Dixon plots) was “competitive”. For the same molecule, the Ki [2, 11] was 5 nM and 7 nM and the “IC50 inhibition, relative potency of 4-MA versus MK-906” value [7] was “approximately ten-fold more potent than MK-906”.

For C[C@]12CC[C@H]3[C@@H](CCC4=CC(=O)CC[C@@]43C)[C@@H]1CC[C@@H]2O [Testosterone, testosterone], the “reduction of the testosterone substrate” value ([3]; intact rat steroid 5α-reductase RNA in oocytes (FIG. 6A)) was 67%.

B1: rat steroid 5α-reductase (Rattus norvegicus) (protein)
chain: MELDELCLLDMLVYLEGFMAFVSIVGLRSVGSPYGRYSPQWPGIRVPARPAWFIQELPSMAWPLYEYIRPAAARLGNLPNRVLLAMFLIHYVQRTLVFPVLIRGGKPTLLVTFVLAFLFCTFNGYVQSRYLSQFAVYAEDWVTHPCFLTGFALWLVGMVINIHSDHILRNLRKPGETGYKIPRGGLFEYVSAANYFGELVEWCGFALASWSLQGVVFALFTLSTLLTRAKQHHQWYHEKFEDYPKSRKILIPFVL
B1 showed a Km [8, 12] of 0.5 µM, a Km [9, 12] of 2.8 µM and a Km [10, 12] of 2.5 µM.

B2: human steroid 5α-reductase 1 (Homo sapiens) (protein)
chain: MATATGVAEERLLAALAYLQCAVGCAVFARNRQTNSVYGRHALPSHRLRVPARAAWVVQELPSLALPLYQYASESAPRLRSAPNCILLAMFLVHYGHRCLIYPFLMRGGKPMPLLACTMAIMFCTCNGYLQSRYLSHCAVYADDWVTDPRFLIGFGLWLTGMLINIHSDHILRNLRKPGDTGYKIPRGGLFEYVTAANYFGEIMEWCGYALASWSVQGAAFAFFTFCFLSGRAKEHHEWYLRKFEEYPKFRKIIIPFLF
For B2, the Km [8, 13] was 0.8 µM, the Km [9, 13] was 1.7 µM and the Km [10, 13] was 3.6 µM.
